{"source": "patent US20220356538A1", "about": "“HEPATITIS B VIRUS MUTANTS WITH INCREASED […] CIRCULAR DNA” (The Penn State Research Foundation, priority 2019, published 2022)", "key": {"HBV cccDNA": {"tested_on": "HBV cccDNA", "test": "HBV cccDNA levels: Southern blot of protein-free DNA from HepG2 cells transfected with HBV replication plasmids", "format": "cell-based, Hepatitis B virus", "excerpt": "(§1) FIG. 1. Effects of HBc linker mutations on cccDNA levels and NC stability. HBV replication plasmids expressing either the wild type (wt) HBc or indicated linker mutants were transfected into human hepatoma cells (HepG2). HBV DNA associated with NCs (core DNA) (lanes 1-8), or protein-free DNA (PF-DNA) (i.e., those DNA species no longer covalently attached to the viral RT protein and mostly released from NCs) (lanes 9-12) was extracted from the transfected cells and analyzed by Southern blot analysis using a radio-labeled HBV DNA probe. The core DNA shown in lanes 5-8 was extracted following prior treatment of the cell lysate with an exogenous DNase, which removes core DNA that was not protected by the capsid (i.e., from destabilized NCs). RC, rcDNA; CCC, cccDNA; SS, single stranded DNA—a reverse transcription intermediate during the synthesis of rcDNA from pgRNA.\nFIG. 3. Effects of HBc linker and envelope mutations on cccDNA levels. […] HBV DNA associated with NCs (core DNA; A), or protein-free DNA (PF-DNA; B) (i.e., those DNA species no longer covalently attached to the viral RT protein and mostly released from NCs) was extracted from the transfected cells and analyzed by Southern blot analysis using a radio-labeled HBV DNA probe. […]"}, "HBV core DNA": {"tested_on": "HBV core DNA", "test": "HBV core DNA synthesis: Southern blot of NC-associated core DNA from transfected cells", "format": "cell-based, Hepatitis B virus", "excerpt": "as §1\nFIG. 4. HBc linker mutants increased HBV CCC DNA by 2-30 fold. Data are shown for LC (S141T/V148I/V149I), S141A, S141D, S141R, L143A, L143I, E145D, and TT146/147AA (a combination of T146A and T147A; aka T146A/T147A)."}}}
{"substance": "L140A [Mutant L140A]", "values": [{"measurement": "cccDNA formation", "setting": "HBV cccDNA", "value": "no cccDNA was made"}, {"measurement": "HBV core DNA synthesis", "setting": "HBV core DNA", "value": "blocked HBV core DNA synthesis"}]}
